According to US8975228B2, “Use of boswellic acids for the prophylaxis and/or treatment of damage to and/or inflammation of the islets of Langerhans” (Fraunhofer-Gesellschaft zur Forderung der Angewandten …, priority 2010, dated 2015):

Columns and labels:
[1] = Blood glucose level in MLD-STZ diabetic mice; type: in vivo, mouse; details: for STZ-induced increase of the blood glucose level: single substance i.p. daily 10 days, AKBA 15 mg/kg, KBA 7.5 mg/kg
Excerpt: (§1) The use of “multiple low dose streptozotocin” (MOL-STZ diabetes) is an acknowledged animal model for inducing diabetes that occurs frequently in association with insulitis, which corresponds to IDDM in humans. In the pathogenesis, macrophages and T-lymphocytes infiltrate the islets of Langerhans and the B-cells are destroyed. MLD-STZ induced diabetes is very well suited for investigating the anti-diabetic and/or anti-inflammatory effect of drugs on the pancreatic islets. For inducing MLD-STZ diabetes, a mouse is dosed with 40 mg/kg STZ per day intraperitoneally (i.p.) over 5 days. During this time there is no B-cell destruction. Only after 10 to 15 days after the first injection of STZ do signs of inflammation of the islets of Langerhans appear, when T-lymphocytes infiltrate and the B-cells are being destroyed. After about 16 days, the symptoms of the inflammation have disappeared again. Most B-cells have died. As a consequence, insulin secretion is reduced or no longer existent (cf. McEvoy et al. 1984, “Multiple low-dose streptozotocin-induced diabetes in the mouse”, Evidence for stimulation of a cytotoxic cellular immune response against an insulin-producing beta cell line, J Clin Invest, 74:715-22). This animal model of experimental induction of diabetes mellitus essentially corresponds with the pathogenesis of type 1 diabetes in young humans.
For inducing MLD-STZ diabetes, the animals were injected i.p. 40 mg/kg STZ a day for a period of five days. In group A the animals were additionally treated with 150 mg/kg BE i.p. for 5 days (FIG. 5A), in group B for 10 days (FIG. 5B) and in group C for 21 days (FIG. 5C).
The animals were treated for 5 days with STZ as described above. AKBA in solution in Tween 80 was injected i.p. daily for 10 days.

IL-2 [2] = details: in vitro, technical literature; cited from earlier work
IL-1β = details: in vitro, technical literature; cited from earlier work
NFK B = details: in vitro, technical literature; cited from earlier work
[3] = biological target: Cyclooxygenase 1 (prostaglandin) (Homo sapiens, UniProt P23219); details: in vitro, technical literature; cited from earlier work
Chain of Cyclooxygenase 1 (prostaglandin) (P23219 24-599): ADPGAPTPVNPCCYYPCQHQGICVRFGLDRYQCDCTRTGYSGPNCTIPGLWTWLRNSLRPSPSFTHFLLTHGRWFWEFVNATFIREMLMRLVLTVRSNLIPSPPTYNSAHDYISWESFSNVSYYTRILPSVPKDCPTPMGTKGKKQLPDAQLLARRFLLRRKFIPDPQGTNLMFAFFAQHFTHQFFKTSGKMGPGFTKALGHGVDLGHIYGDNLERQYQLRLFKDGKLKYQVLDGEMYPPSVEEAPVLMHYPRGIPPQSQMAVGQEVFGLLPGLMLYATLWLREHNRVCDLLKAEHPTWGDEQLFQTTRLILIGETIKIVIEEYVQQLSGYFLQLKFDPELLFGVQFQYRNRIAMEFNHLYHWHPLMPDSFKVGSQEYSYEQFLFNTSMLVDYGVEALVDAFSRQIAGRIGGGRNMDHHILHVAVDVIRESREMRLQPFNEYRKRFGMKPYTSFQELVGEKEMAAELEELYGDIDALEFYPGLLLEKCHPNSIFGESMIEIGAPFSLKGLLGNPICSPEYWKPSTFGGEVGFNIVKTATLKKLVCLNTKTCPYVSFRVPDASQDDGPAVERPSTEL

IFN-γ [4] = details: in vitro, technical literature; cited from earlier work
TNF-α [5] = details: in vitro, technical literature; cited from earlier work
IFN-γ [6] = assay: Serum pro-inflammatory cytokines in MLD-STZ diabetic mice; type: in vivo, mouse; details: 10 days i.p.; BE 150 mg/kg, AKBA 15.0 mg/kg, KBA 7.5 mg/kg
Protocol: (§2) Male mice were injected i.p. 40 mg/kg STZ for 5 days (STZ group, group A). A second group was, in addition to STZ, treated i.p. with 150 mg/kg BE for 10 days (group STZ+BE, group B). A further group (group C) remained untreated. After 10 days blood samples were taken.
(§3) In further tests, 15.0 mg/kg AKBA or 7.5 mg/kg KBA respectively were administered instead of 150 mg/kg BE.
(§4) Ten days after daily i.p. injections of 150 mg/kg of boswellia extract, of 15.0 mg/kg AKBA or 7.5 mg/kg KBA in MLD-STZ animals (40 mg/kg i.p. for 5 days) the presence of cytokines was determined using the commercially available Multianalyte Array TM Kits (mouse-inflammatory cytokines, SA Bioscience Corporation, USA) according to the instructions on usage provided by the manufacturer. The cytokines IL-1A, IL-1B, IL-2, IFN-γ, IL-6 and TNF-α were ascertained.

IL-1A = assay: as above; type: in vivo, mouse; details: 10 days i.p.; BE 150 mg/kg, AKBA 15.0 mg/kg, KBA 7.5 mg/kg
Protocol: as §2, §3, §4

IL-1B = assay: as above; type: in vivo, mouse; details: 10 days i.p.; BE 150 mg/kg, AKBA 15.0 mg/kg, KBA 7.5 mg/kg
Protocol: as §2, §3, §4

IL-2 [7] = assay: as above; type: in vivo, mouse; details: 10 days i.p.; BE 150 mg/kg, AKBA 15.0 mg/kg, KBA 7.5 mg/kg
Protocol: as §2, §3, §4

IL-6 = assay: as above; type: in vivo, mouse; details: 10 days i.p.; BE 150 mg/kg, AKBA 15.0 mg/kg, KBA 7.5 mg/kg
Protocol: as §2, §3, §4

TNF-α [8] = assay: as above; type: in vivo, mouse; details: 10 days i.p.; BE 150 mg/kg, AKBA 15.0 mg/kg, KBA 7.5 mg/kg
Protocol: as §2, §3, §4

[9] = biological target: T1, 5-Lipoxygenase (leukotriene) (Homo sapiens, UniProt P09917); details: in vitro, technical literature; cited from earlier work
T1 sequence (P09917 1-674): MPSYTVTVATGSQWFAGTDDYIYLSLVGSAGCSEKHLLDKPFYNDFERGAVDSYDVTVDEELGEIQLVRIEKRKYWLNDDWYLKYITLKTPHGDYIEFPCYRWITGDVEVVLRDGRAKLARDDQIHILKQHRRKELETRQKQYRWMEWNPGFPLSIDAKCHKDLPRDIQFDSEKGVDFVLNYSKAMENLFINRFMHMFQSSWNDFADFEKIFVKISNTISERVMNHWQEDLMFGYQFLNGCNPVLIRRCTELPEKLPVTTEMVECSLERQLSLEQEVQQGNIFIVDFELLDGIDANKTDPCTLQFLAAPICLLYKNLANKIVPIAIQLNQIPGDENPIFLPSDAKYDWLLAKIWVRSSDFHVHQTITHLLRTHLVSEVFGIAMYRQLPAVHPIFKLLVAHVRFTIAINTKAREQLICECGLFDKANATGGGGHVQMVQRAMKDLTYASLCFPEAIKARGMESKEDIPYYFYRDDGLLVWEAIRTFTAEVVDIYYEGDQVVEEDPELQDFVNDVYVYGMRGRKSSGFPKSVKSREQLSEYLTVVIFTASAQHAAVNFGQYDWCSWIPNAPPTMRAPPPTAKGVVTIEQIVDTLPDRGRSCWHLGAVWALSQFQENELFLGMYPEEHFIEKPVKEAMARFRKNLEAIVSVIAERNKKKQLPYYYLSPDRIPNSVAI

C3-Convertase = details: in vitro, technical literature; cited from earlier work
islets of Langerhans = assay: Histology of pancreas in MLD-STZ diabetic mice (H&E, anti-CD3, anti-activated caspase 3); type: in vivo, mouse; details: STZ 40 mg/kg i.p. 5 days; 10 days i.p. BE 150 mg/kg, AKBA 15 mg/kg or KBA 7.5 mg/kg; examined day 10
Excerpt: as §1
In order to investigate the effect of an extract containing boswellic acids on the damage and/or inflammation of the islets of Langerhans, a group of mice was dosed with streptozotocin alone and another group of mice was dosed with streptozotocin plus boswellic acid extract (a mixture of boswellic acids with an overall concentration of all boswellic acids of 62%) The aforesaid extract contained 5.51% KBA and 4.96% AKBA. From the 1st to the 10th day, C3M/HeN and Bk +/+ were administered i.p with a dose of 150 mg/kg body weight in male mice of strains bred in the laboratory. […]

Elastase = biological target: T2, Elastase (Homo sapiens, UniProt P08246); details: in vitro, technical literature; cited from earlier work
T2 sequence (P08246 30-267): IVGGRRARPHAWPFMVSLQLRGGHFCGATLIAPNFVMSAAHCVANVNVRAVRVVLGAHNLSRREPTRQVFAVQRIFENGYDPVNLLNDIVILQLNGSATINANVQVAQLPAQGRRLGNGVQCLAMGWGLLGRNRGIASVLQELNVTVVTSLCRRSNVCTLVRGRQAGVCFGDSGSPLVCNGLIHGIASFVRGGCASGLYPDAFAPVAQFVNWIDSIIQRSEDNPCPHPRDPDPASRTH

CC(=O)O[C@@H]1CC[C@@]2(C)[C@@H](CC[C@]3(C)[C@@H]2C(=O)C=C2[C@@H]4[C@@H](C)[C@H](C)CC[C@]4(C)CC[C@]23C)[C@@]1(C)C(=O)O [AKBA, acetyl-11-keto-β-boswellic acid]
Blood glucose level after administration was discontinued after 10 days ([1]; AKBA 15 mg/kg i.p. 10 days): no significant further increase
STZ-induced increase of the blood glucose level [1]: significant reduction
Effect on IL-2 (IL-2 [2]): Lowered
Effect on IL-1β (IL-1β): Lowered
Effect on NFK B (NFK B): Lowered
Effect on Cyclooxygenase 1 (prostaglandin) [3]: Lowered
Effect on IFN-γ (IFN-γ [4]): Lowered
Effect on TNF-α (TNF-α [5]): Lowered
STZ-induced increase in serum IFN-γ (IFN-γ [6]): reduced or prevented
STZ-induced increase in serum IL-1A (IL-1A): reduced or prevented
STZ-induced increase in serum IL-1B (IL-1B): reduced or prevented
STZ-induced increase in serum IL-2 (IL-2 [7]): reduced or prevented
STZ-induced increase in serum IL-6 (IL-6): reduced or prevented
STZ-induced increase in serum TNF-α (TNF-α [8]): reduced or prevented
Effect on 5-Lipoxygenase (leukotriene) [9]: Lowered
Effect on C3-Convertase (C3-Convertase): Lowered
Signs of apoptosis (activated caspase 3) (islets of Langerhans): only minor signs of apoptosis
Signs of inflammation of the islets of Langerhans (H&E staining, T-lymphocytes by CD3) (islets of Langerhans): no signs of inflammation
Effect on Elastase (Elastase): Lowered

C[C@H]1[C@H](C)CC[C@]2(C)CC[C@]3(C)C(=CC(=O)[C@@H]4[C@@]5(C)CC[C@@H](O)[C@](C)(C(=O)O)[C@@H]5CC[C@]43C)[C@H]12 [KBA, 11-keto-β-boswellic acid]
STZ-induced increase of the blood glucose level [1]: reduced
STZ-induced increase in serum IFN-γ (IFN-γ [6]): reduced or prevented
STZ-induced increase in serum IL-1A (IL-1A): reduced or prevented
STZ-induced increase in serum IL-1B (IL-1B): reduced or prevented
STZ-induced increase in serum IL-2 (IL-2 [7]): reduced or prevented
STZ-induced increase in serum IL-6 (IL-6): reduced or prevented
STZ-induced increase in serum TNF-α (TNF-α [8]): reduced or prevented
Signs of inflammation of the islets of Langerhans (H&E staining, T-lymphocytes by CD3) (islets of Langerhans): neither signs of inflammation
